In general, IC50 refers to the midpoint of a concentration-inhibition curve. What is called Ki is the equilibrium dissociation constant of an inhibitor or competing ligand from its target. The low end stands for tighter binding, the high end for weaker binding.

Structures can show the parent of a compound that is named as a salt.

This note sets out measurements from patent US5140040A, “1-aminomethyl-1,2,3,4-tetrahydronaphthalenes” (Abbott Laboratories, priority 1991, dated 1992).

In one assay the test system is norepinephrine uptake. The experiment in a line: Biogenic amine uptake inhibition, rat brain synaptosomes, tritiated norepinephrine. It counts as biochemical, Sprague-Dawley derived rats. Conditions: tritiated amine 0.1 μM, 37° C., 4 minutes, read-out: Biogenic Amine Uptake Inhibition IC50 Norephinephrine. An excerpt:
(§1) Sprague-Dawley derived rats of either sex, weighing about 180-250 g, were killed by decapitation. The brains were immediately removed, placed on a glass plate chilled over crushed ice and dissected according to a modification of the method of Glowinski and Iversen (J. Neurochem. 13, 655-669, 1966). First, the rhombencephalon was separated by transverse section and discarded. The remaining tissue was bisected by a midline sagittal cut. The hypothalamus was removed using the anterior and posterior reference points, respectively. The hippocampus was peeled away and discarded and the striata were exposed and removed. Frontal cortical tissue was dissected from remaining brain structures. The hypothalamus and striatum each weighed about 100 mg , the striata 50-75 mg, and the cortex weighed up to 800 mg. The tissues were placed in a cold Potter-Elvehjem glass homogenizer with 5 (cortex) or 10 (hypothalamus) and 20 (striatum) volumes of ice-cold 0.32M sucrose, pH 7.0 and homogenized by hand. The homogenate was centrifuged at 2500 rpm in a GLC centrifuge for 10 minutes in a refrigerated room. The supernatant fraction containing the synaptosomes was decanted, mixed thoroughly, and kept on crushed ice for use in the uptake studies.
(§2) Uptake studies were conducted according to the method of Synder and Coyle (J. PharmacoI. Exp. Ther. 165, 78-86, 1969) with minor modifications. Usually a 0.1 ml aliquot of the synaptosomal preparation was incubated in a mixture of 0.75 ml of modified Krebs-Ringer buffer, 0.05 ml of the drug being evaluated for uptake inhibition, and 0.1 ml of a 1 μM tritiated amine (norepinephrine, serotonin or dopamine) solution (final concentration 0.1 μM) for a total volume of 1 ml. The modified Krebs-Ringer bicarbonate buffer used in these studies contained 118 mM NaCl, 4 mM KCl, 1.3 mM CaCl2, 1.12 mM KH2 PO4, 1.2 mM MgSO4 and 24 mM NaHCO3, with the addition of 5 mM glucose, 0.15 mM disodium EDTA, 12.5 μM pargyline and 1 mM ascorbic acid. Uptake was initiated by the addition of the tritiated amine, and the mixture was incubated at 37° C. in a Dubnoff Metabolic Shaking Incubator for 4 minutes. Control incubations without the test drug were conducted at 37° C. to determine total uptake and non-specific binding at 0° C. to correct for the diffusion of the tritiated amine into the synaptosomes and/or binding. Filtration was used to terminate uptake and collect the synaptosomes. In the filtration technique the incubation mixture was diluted with 4 ml of ice-cold 0.9% NaCl and filtered through GF/B glass microfiber filters (Whatman) under gentle vacuum. The filters were subsequently washed four times with 5 ml of ice-cold 0.9% NaCl and transferred to glass scintillation vials. Soluene® ([…]) and IONIC FLUOR (Packard) scintillation fluid (3.5 ml) were added and the vials were placed in a mechanical shaker for 1 hour. All samples were cold and dark adapted and counted in a TriCarb® (Packarad) Model 460 Liquid Scintillation Spectrometer. Corrections were automatically made for quenching by the external standard method and for luminescence. All results (see Table 2) are based on total radioactivity.

Another assay has as its system dopamine uptake. The assay can be described thus: Biogenic amine uptake inhibition, rat brain synaptosomes, tritiated dopamine. The following applies: tritiated amine 0.1 μM, 37° C., 4 minutes. It counts as biochemical, Sprague-Dawley derived rats.
Excerpt: as §1, §2

The test system of the next assay is serotonin uptake. The assay can be described thus: Biogenic amine uptake inhibition, rat brain synaptosomes, tritiated serotonin. It counts as biochemical, Sprague-Dawley derived rats. The following applies: tritiated amine 0.1 μM, 37° C., 4 minutes.
Excerpt: as §1, §2

The next assay has as its target alpha-2-receptor. The assay can be described thus: Radioligand binding, alpha-2 adrenoceptor, rat cerebral cortices, [^3 H]-rauwolscine. The following applies: for Ki: rat cerebral cortices, [^3 H]-rauwolscine; for alpha-2 - Selectivity Ki alpha-1/Ki alpha 2: ratio of Ki alpha-1 to Ki alpha-2. As for the experimental part:
The compounds were assessed for alpha-adrenergic receptor subtype selectivity by use of radioligand binding techniques as described previously (DeBernardis et.al. J. Med. Chem. 28, 1398 (1985)).

For “8-Fluoro-5,6-methylenedioxy-1-(3-phenylpyrrolidino1-methyl) tetralin hydrochloride [Example 160]”, the IC50 with norepinephrine uptake came out at 0.991 µM; in the assay with dopamine uptake, 2.93 µM; in the assay with serotonin uptake, 1.84 µM.

In the case of `COc1ccc2c(c1)CCCC2CN(C)CCc1cccs1` (stereo not drawn) [Example 5, 1-((N-Methylamino)methyl-N-(2-(2-thienyl)ethyl))-6-methoxy tetralin methanesulfonate], the IC50 in the assay on norepinephrine uptake turned out to be 1.04 µM; with dopamine uptake, 6.53 µM; in the assay on serotonin uptake, 5.92 µM. Further, the Ki at alpha-2-receptor was determined as 0.0008 µM. Also, the “alpha-2 - Selectivity Ki alpha-1/Ki alpha 2” value in the assay on alpha-2-receptor is 725.

For `COc1ccc2c(c1)CCCC2CN(C)CCc1cccc(F)c1` (stereo not drawn) [Example 6b, 1-((N-methylamino)methyl-N-(2-(m-fluorophenyl)ethyl))-6-methoxy tetralin hydrochloride], the values for the IC50 with norepinephrine uptake, in the assay with dopamine uptake and in the assay on serotonin uptake were 0.574 µM, 10.1 µM and 1.95 µM, respectively. This compound also had a Ki on alpha-2-receptor of 0.005 µM. Moreover, the “alpha-2 - Selectivity Ki alpha-1/Ki alpha 2” value in the assay on alpha-2-receptor was 236.

With `CN(CCc1ccccc1)CC1CCCc2cc(O)ccc21` (stereo not drawn) [Example 11, 1-((N-Methylamino)methyl-N-(2-phenylethyl))-6-hydroxy tetralin hydrobromide], the results for the concentration for half-maximal inhibition (IC50) in the assay on norepinephrine uptake, in the assay with dopamine uptake and in the assay on serotonin uptake were 1.74 µM, 10.1 µM and 7.23 µM, respectively.

As for `COc1cccc2c1CCCC2CN(C)CCc1cccs1` (stereo not drawn) [Example 19, 1-((N-Methylamino)methyl-N-(2-(2-thienyl)ethyl))-5-methoxy tetralin methanesulfonate], the IC50 in the assay with norepinephrine uptake was 0.498 µM; in the assay with dopamine uptake, 6.09 µM; with serotonin uptake, 0.411 µM.

Consider `COc1cccc2c1CCCC2CN(C)CCc1cccc(F)c1` (stereo not drawn) [Example 20c, 1-((N-methylamino)methyl-N-(2-(m-fluorophenyl)ethyl))-5-methoxytetralinmethanesulfonate], for which the IC50 in the assay with norepinephrine uptake is 1.58 µM; with dopamine uptake it was 9.17 µM; in the assay with serotonin uptake it was 0.161 µM.

With `CN(CCc1cccs1)CC1CCCc2c1ccc1c2OCCO1` (stereo not drawn) [Example 30, 1-((N-Methylamino)methyl-N-(2-(2-thienyl)ethyl))-5,6-ethylenedioxy tetralin hydrochloride], the IC50 in the assay with norepinephrine uptake stood at 0.624 µM; in the assay on dopamine uptake it was 8.08 µM; with serotonin uptake, 1.34 µM. Besides, the inhibition constant (Ki) on alpha-2-receptor came to 0.004 µM. Also, the “alpha-2 - Selectivity Ki alpha-1/Ki alpha 2” value in the assay with alpha-2-receptor came to 118.

With `Cc1cc(O)c(O)c2c1C(CN(C)CCc1cccc(F)c1)CCC2` (stereo not drawn) [Example 34, 1-(N-Methylamino)methyl-N-(2-(m-fluorophenyl)ethyl))-5,6-dihydroxy-8-methyltetralin hydrobromide], the IC50 stood at 0.365 µM in the assay with norepinephrine uptake, 9.4 µM in the assay with dopamine uptake and 2.2 µM with serotonin uptake. For the same compound, at alpha-2-receptor, the Ki was determined as 0.0026 µM. In addition, in the assay with alpha-2-receptor, the “alpha-2 - Selectivity Ki alpha-1/Ki alpha 2” value came to 127.

With `CCN(CCc1cccs1)CC1CCCc2cc(OC)ccc21` (stereo not drawn) [Example 41, 1-((N-Ethylamino)methyl-N-(2-(2-thienyl)ethyl))-6-methoxy tetralin hydrochloride], the IC50 with norepinephrine uptake is 0.2 µM; with dopamine uptake it was 6.03 µM; in the assay on serotonin uptake, 2.28 µM. In addition, the Ki at alpha-2-receptor amounted to 0.0029 µM. Besides, the “alpha-2 - Selectivity Ki alpha-1/Ki alpha 2” value in the assay on alpha-2-receptor came to 326.

As to `CCN(CCc1ccsc1)CC1CCCc2cc(OC)ccc21` (stereo not drawn) [Example 44, 1-N-Ethylamino)methyl-N-(2-(3-thienyl)ethyl))-6-methoxy tetralin hydrochloride], the IC50 was found to be 0.357 µM in the assay with norepinephrine uptake, 8.64 µM in the assay on dopamine uptake and 3.29 µM in the assay with serotonin uptake. The Ki on alpha-2-receptor amounted to 0.0056 µM. In addition, the “alpha-2 - Selectivity Ki alpha-1/Ki alpha 2” value with alpha-2-receptor is recorded as 105.

Regarding `CCN(CCc1cccc(F)c1)CC1CCCc2c(OC)cccc21` (stereo not drawn) [Example 72, 1-((N-Ethylamino)methyl-N-(2-(m-fluorophenyl)ethyl))-5-methoxy tetralin hydrochloride], the half-inhibitory concentration (IC50) in the assay on norepinephrine uptake is 0.137 µM; in the assay with dopamine uptake, 6.83 µM; in the assay with serotonin uptake, 0.466 µM.

As for `CCN(CCc1cccs1)CC1CCCc2c(OC)cccc21` (stereo not drawn) [Example 73, 1-((N-Ethylamino)methyl-N-(2-(2-thienyl)ethyl))-5-methoxy tetralin hydrochloride], the IC50 in the assay on norepinephrine uptake stood at 0.336 µM; in the assay with dopamine uptake, 8.43 µM; with serotonin uptake, 0.84 µM.

Regarding `c1ccc(C2CCN(CC3CCCc4c3ccc3c4OCO3)C2)cc1` (stereo not drawn) [Example 143a, 5,6-Methylenedioxy-1-(3-phenylpyrrolidino-1-methyl) tetralin methanesulfonate], the IC50 was found to be 1.1 µM in the assay with norepinephrine uptake, 8.72 µM with dopamine uptake and 4.03 µM in the assay with serotonin uptake. The compound further showed a Ki on alpha-2-receptor of 0.0012 µM. The “alpha-2 - Selectivity Ki alpha-1/Ki alpha 2” value in the assay on alpha-2-receptor is reported as 43.

`Nc1ccc2c(c1)CCCC2CN1CCC(c2ccccc2)C1` (stereo not drawn) [Example 156, 6-Amino-1-(3-phenylpyrrolidino-1-methyl) tetralin dihydrochloride]: at alpha-2-receptor, the Ki came to 0.006 µM and the “alpha-2 - Selectivity Ki alpha-1/Ki alpha 2” value was determined as 21.

Take `CCN(CCc1cccs1)CC1CCCc2c1ccc1c2OCO1` (stereo not drawn) [Example 164, 1-(N-Ethylamino)methyl-N-(2-(2-thienyl)ethyl))-5,6-methylenedioxy tetralin hydrochloride]: on alpha-2-receptor, the affinity, expressed as Ki, was 0.0037 µM and the “alpha-2 - Selectivity Ki alpha-1/Ki alpha 2” value turned out to be 258.

Take `CCN(CCc1cccc(F)c1)CC1CCCc2c1ccc1c2OCO1` (stereo not drawn) [Example 165, 1-((N-Ethylamino)methyl-N-(2 m-fluorophenethyl))-5,6-methylenedioxy tetralin hydrochloride]: the IC50 worked out at 0.398 µM with norepinephrine uptake, 6.67 µM in the assay on dopamine uptake and 1.24 µM in the assay on serotonin uptake. The Ki at alpha-2-receptor was found to be 0.0035 µM. The “alpha-2 - Selectivity Ki alpha-1/Ki alpha 2” value in the assay with alpha-2-receptor stood at 132.

For the compound `CN(CCc1cccc(F)c1)CC1CCCc2c1ccc1c2OCO1` (stereo not drawn) [Example 166, 1-((N-Methylamino)methyl-N-(2-m-fluorophenethyl))-5,6-methylenedioxy tetralin methanesulfonate], the IC50 with norepinephrine uptake is 1.52 µM; in the assay with dopamine uptake, 8.77 µM; in the assay with serotonin uptake it was 0.4 µM. Also, the Ki at alpha-2-receptor was found to be 0.0045 µM. For the same compound, the “alpha-2 - Selectivity Ki alpha-1/Ki alpha 2” value in the assay with alpha-2-receptor stood at 134.

In the case of `CN(CCc1cccc(F)c1)CC1CCCc2c1ccc1c2OCCO1` (stereo not drawn) [Example 167, 1-((N-Methylamino)methyl N-(2-m-fluorophenethyl))-5,6-ethylenedioxy tetralin methanesulfonate], at alpha-2-receptor, the Ki was 0.0042 µM and the “alpha-2 - Selectivity Ki alpha-1/Ki alpha 2” value is on record as 85.

Consider `CCN(CCc1cccs1)CC1CCCc2c1ccc1c2OCCO1` (stereo not drawn) [Example 168, 1-((N-Ethylamino)methyl N-(2-(2-thienyl)ethyl))-5,6-ethylenedioxy tetralin hydrochloride], for which, on alpha-2-receptor, the affinity corresponds to a Ki of 0.0066 µM and the “alpha-2 - Selectivity Ki alpha-1/Ki alpha 2” value was determined as 125.

For the compound `Fc1ccccc1C1CCN(CC2CCCc3c2ccc2c3OCO2)C1` (stereo not drawn) [Example 176a, 5,6-Methylenedioxy-1-(3-(o-fluorophenyl)pyrrolidino-1-methyl) tetralin methanesulfonate], the IC50 in the assay on norepinephrine uptake worked out at 1.56 µM; in the assay with dopamine uptake, 7.31 µM; in the assay on serotonin uptake, 2.83 µM. In addition, on alpha-2-receptor, the Ki was 0.0006 µM. Further, the “alpha-2 - Selectivity Ki alpha-1/Ki alpha 2” value in the assay on alpha-2-receptor is 132.

`CN(c1ccc2c(c1)CCCC2CN1CCC(c2ccccc2)C1)S(C)(=O)=O` (stereo not drawn) [Example 193, 6-(N-methylmethylsulfonamido)-1-(3-(phenylpyrrolidino-1-methyl)tetralin hydrochloride]: on alpha-2-receptor, the affinity, expressed as Ki, was 0.0013 µM and the “alpha-2 - Selectivity Ki alpha-1/Ki alpha 2” value is given as 93.

For the compound `CN(C)CCCN1c2ccccc2CCc2ccccc21` [Imipramine, reference compound], the IC50 in the assay on norepinephrine uptake was found to be 0.346 µM; in the assay with dopamine uptake, 125 µM; in the assay with serotonin uptake, 0.778 µM.
